The source made the active and inactive calls. The calls are words filed in the database; no cut-off is given here.
Assays:
HepG2 [1] = test: Lipid-lowering effect in human HepG2 cells assessed as reduction in oleic acid-induced lipid accumulation at 1 uM after 6 hrs by oil-red O staining based spectrophotometry; type: functional, cell-based
HepG2 [2] = test: Lipid-lowering effect in human HepG2 cells assessed as reduction in oleic acid-induced triglyceride accumulation at 10 uM after 24 hrs by oil-red O staining based spectrophotometry; type: functional, cell-based
HepG2 [3] = test: Lipid-lowering effect in human HepG2 cells assessed as reduction in oleic acid-induced total cholesterol accumulation at 10 uM after 24 hrs by oil-red O staining based spectrophotometry; type: functional, cell-based
HepG2 [4] = test: Lipid-lowering effect in human HepG2 cells assessed as reduction in oleic acid-induced neutral lipid accumulation at 1 and 10 uM after 24 hrs by oil-red O staining based spectrophotometry; type: functional, cell-based
HepG2 [5] = test: Lipid-lowering effect in human HepG2 cells assessed as reduction in oleic acid-induced triglyceride accumulation at 1 and 10 uM after 24 hrs by oil-red O staining based spectrophotometry; type: functional, cell-based
HepG2 [6] = test: Increase in ACOX1 gene expression in human HepG2 cells at 1 uM by quantitative real time PCR method; type: functional, cell-based
HepG2 [7] = test: Increase in PGC-1alpha protein expression in human HepG2 cells at 1 to 10 uM by Western blotting method; type: functional, cell-based
HepG2 [8] = test: Lipid-lowering effect in human HepG2 cells assessed as reduction in oleic acid-induced triglyceride accumulation at 10 uM in presence of 10 uM PPARalpha antagonist MK886 by oil-red O staining based spectrophotometry; type: functional, cell-based
HepG2 [9] = test: Increase in CPT1 protein expression in human HepG2 cells at 1 to 10 uM by Western blotting method; type: functional, cell-based
HepG2 [10] = test: Effect on FAS protein expression in human HepG2 cells at 1 to 10 uM by Western blotting method; type: functional, cell-based
HepG2 [11] = test: Increase in PPARalpha protein expression in human HepG2 cells at 1 to 10 uM by Western blotting method; type: functional, cell-based
HepG2 [12] = test: Increase in CYP7A1 gene expression in human HepG2 cells at 1 uM by quantitative real time PCR method; type: functional, cell-based
HepG2 [13] = test: Inhibition of ACC gene expression in human HepG2 cells at 1 uM by quantitative real time PCR method; type: functional, cell-based
HepG2 [14] = test: Inhibition of FAS gene expression in human HepG2 cells at 1 uM by quantitative real time PCR method; type: functional, cell-based
[15] = target: T1, Peroxisome proliferator-activated receptor alpha (Homo sapiens) (UniProt Q07869); test: Activation of PPARalpha transactivation in human HepG2 cells assessed as increase in transcriptional activity at 0.1 to 10 uM by luciferase reporter gene assay; type: cell-based
T1 sequence (whole entry): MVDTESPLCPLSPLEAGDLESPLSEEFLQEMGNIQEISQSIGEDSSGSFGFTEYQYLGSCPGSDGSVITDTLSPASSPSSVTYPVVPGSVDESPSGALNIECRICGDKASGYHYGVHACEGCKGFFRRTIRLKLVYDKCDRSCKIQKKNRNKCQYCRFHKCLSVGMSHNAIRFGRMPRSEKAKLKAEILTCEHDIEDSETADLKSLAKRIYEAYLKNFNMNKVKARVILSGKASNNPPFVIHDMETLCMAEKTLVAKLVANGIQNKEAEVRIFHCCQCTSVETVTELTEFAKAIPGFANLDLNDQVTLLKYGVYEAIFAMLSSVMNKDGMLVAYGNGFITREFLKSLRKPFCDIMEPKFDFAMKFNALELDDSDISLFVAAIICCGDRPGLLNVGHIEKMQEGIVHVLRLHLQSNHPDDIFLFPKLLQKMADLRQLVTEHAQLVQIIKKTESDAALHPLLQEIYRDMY

HepG2 [16] = test: Increase in CPT1 gene expression in human HepG2 cells at 1 uM by quantitative real time PCR method; type: functional, cell-based
HepG2 [17] = test: Increase in MCD1 gene expression in human HepG2 cells at 1 uM by quantitative real time PCR method; type: functional, cell-based
HepG2 [18] = test: Increase in PDK4 gene expression in human HepG2 cells at 1 uM by quantitative real time PCR method; type: functional, cell-based
HepG2 [19] = test: Increase in PPARalpha gene expression in human HepG2 cells at 1 uM by quantitative real time PCR method; type: functional, cell-based
HepG2 [20] = test: Lipid-lowering effect in human HepG2 cells assessed as reduction in oleic acid-induced total cholesterol accumulation at 10 uM in presence of 10 uM PPARalpha antagonist MK886 by oil-red O staining based spectrophotometry; type: functional, cell-based
HepG2 [21] = test: Inhibition of HMGCR gene expression in human HepG2 cells at 1 uM by quantitative real time PCR method; type: functional, cell-based
HepG2 [22] = test: Lipid-lowering effect in human HepG2 cells assessed as reduction in oleic acid-induced total cholesterol accumulation at 1 and 10 uM after 24 hrs by oil-red O staining based spectrophotometry; type: functional, cell-based

**Q.** For O=C(O)C[C@H](O)CCc1ccccc1CO, which inhibition (HepG2 [1]) is on record?
**A.** Its inhibition is “inactive”.

**Q.** How did the inhibition (HepG2 [1]) turn out when O=C(O)CC/C=C/c1ccccc1CO was run?
**A.** The inhibition was “inactive”.

**Q.** With COC(=O)CC/C=C/c1ccccc1CO as the compound, how does the inhibition (HepG2 [1]) read?
**A.** Its inhibition is “inactive”.

**Q.** With O=C(O)CCCC(=O)c1ccccc1CO as the compound, how does the inhibition (HepG2 [1]) read?
**A.** The inhibition was “inactive”.

**Q.** Which inhibition (HepG2 [1]) does the source give for O=C(O)CCCCc1ccccc1CO here?
**A.** Its inhibition is “inactive”.

**Q.** For O=C(O)CCCCC[C@H](O)c1ccccc1CO, which inhibition (HepG2 [1]) is on record?
**A.** Its inhibition is “Active”.

**Q.** CC(C)=CCC/C(C)=C/CC/C(C)=C/Cc1cc(O)c(C)cc1O was tested. Which inhibition (HepG2 [1]) did it give?
**A.** The inhibition was “inactive”.

**Q.** Which results are given for CC[C@H](C)C(=O)O[C@H]1C[C@@H](C)C=C2C=C[C@H](C)[C@H](CC[C@@H]3C[C@@H](O)CC(=O)O3)[C@H]21?
**A.** inhibition (HepG2 [1]): Active; inhibition (HepG2 [2]): Active; inhibition (HepG2 [3]): Active

**Q.** Which inhibition (HepG2 [1]) does the source give for CC(C)=CCC/C(C)=C/CC/C(C)=C/C[C@@]12O[C@@H]1[C@H](O)C(C)=CC2=O here?
**A.** Its inhibition is “inactive”.

**Q.** CC(C)=CCC/C(C)=C/CC/C(C)=C/CC1=CC(=O)C(C)=CC1=O was tested. Which inhibition (HepG2 [4]) did it give?
**A.** Its inhibition is “Dose-dependent effect”.

**Q.** And the inhibition (HepG2 [5])?
**A.** The inhibition was “Dose-dependent effect”.

**Q.** What about the Activity (HepG2 [6]) of the same compound?
**A.** The Activity was “Active”.

**Q.** And the Activity (HepG2 [7])?
**A.** Its Activity is “Active”.

**Q.** And the inhibition (HepG2 [8])?
**A.** Its inhibition is “inactive”.

**Q.** What about the Activity (HepG2 [9]) of the same compound?
**A.** The Activity was “Active”.

**Q.** And the Activity (HepG2 [10])?
**A.** Its Activity is “inactive”.

**Q.** What about the Activity (HepG2 [11]) of the same compound?
**A.** Its Activity is “Active”.

**Q.** What about the Activity (HepG2 [12]) of the same compound?
**A.** Its Activity is “Active”.

**Q.** And the inhibition (HepG2 [13])?
**A.** The inhibition was “inactive”.

**Q.** And the inhibition (HepG2 [14])?
**A.** Its inhibition is “inactive”.

**Q.** And the Activity [15]?
**A.** Its Activity is “Dose-dependent effect”.

**Q.** And the inhibition (HepG2 [1])?
**A.** Its inhibition is “Active”.

**Q.** What about the Activity (HepG2 [16]) of the same compound?
**A.** Its Activity is “Active”.

**Q.** What about the Activity (HepG2 [17]) of the same compound?
**A.** Its Activity is “Active”.

**Q.** And the Activity (HepG2 [18])?
**A.** Its Activity is “Active”.

**Q.** And the Activity (HepG2 [19])?
**A.** The Activity was “Active”.

**Q.** What about the inhibition (HepG2 [20]) of the same compound?
**A.** The inhibition was “inactive”.

**Q.** What about the inhibition (HepG2 [21]) of the same compound?
**A.** The inhibition was “inactive”.

**Q.** And the inhibition (HepG2 [22])?
**A.** Its inhibition is “Dose-dependent effect”.

**Q.** O=C(O)/C=C/C=C/c1ccccc1CO was tested. Which inhibition (HepG2 [1]) did it give?
**A.** The inhibition was “inactive”.
